Calls of active or inactive are those of the source. The calls are words filed in the database; no cut-off is given here.
Experiments:
SH-SY5Y [1] = assay: Induction of mitochondrial membrane potential loss in human SH-SY5Y cells at 10 uM incubated for 10 mins by TMRE dye based assay; assay type: functional
SH-SY5Y [2] = details: Homo sapiens, at 10 µM
Description: Induction of mitochondrial membrane potential loss in human SH-SY5Y cells at 10 uM incubated for 10 mins in presence of 0.2 uM CsA by TMRE dye based assay

SH-SY5Y [3] = assay: Inhibition of SOC in human SH-SY5Y cells assessed as reduction in thapsigargin-induced Ca2+ influx incubated for 5 mins at 5 uM by FURA-2AM dye based fluorescence assay; assay type: cell-based
SH-SY5Y [4] = assay: Effect on cytosolic Ca2+ level in human SH-SY5Y cells at 10 uM followed by 1 mM Ca2+ addition 5 mins after compound treatment by FURA-2AM dye based fluorescence assay; assay type: functional, cell-based
SH-SY5Y [5] = details: Homo sapiens, at 10 µM; remark: listed apart in the source
Description: Inhibition of SOC in human SH-SY5Y cells assessed as reduction in thapsigargin-induced Ca2+ influx at 10 uM pre-incubated for 5 mins with 0.2 uM CsA followed by compound addition by FURA-2AM dye based fluorescence assay

SH-SY5Y [6] = assay: Inhibition of SOC in human SH-SY5Y cells assessed as reduction in thapsigargin-induced Ca2+ influx incubated for 5 mins by FURA-2AM dye based fluorescence assay; assay type: cell-based
[7] = target: Sodium channel protein type 8 subunit alpha (Homo sapiens) (UniProt Q9UQD0); assay: Effect on human NaV1.6 expressed in HEK293 cells assessed as effect on sodium current by whole cell patch clamp electrophysiology method; assay type: cell-based
SH-SY5Y [8] = details: Homo sapiens, at 10 µM; remark: listed apart in the source
Description: Modulation of mitochondrial permeability transition pore opening in human SH-SY5Y cells assessed as reduction in calcein fluorescence at 10 uM in presence of 0.2 uM CsA by calcein-AM dye based confocal laser scanning microscopy

SH-SY5Y [9] = details: Homo sapiens, at 10 µM; remark: listed apart in the source
Description: Inhibition of SOC in human SH-SY5Y cells assessed as reduction in thapsigargin-induced Ca2+ influx incubated for 5 mins at 10 uM by FURA-2AM dye based fluorescence assay

[10] = Cytotoxicity against human SH-SY5Y cells assessed as reduction in cell viability at 0.1 to 20 uM incubated for 1 hr by MTT assay; assay type: cell-based
SH-SY5Y [11] = assay: Modulation of mitochondrial permeability transition pore opening in human SH-SY5Y cells assessed as reduction in calcein fluorescence at 10 uM by calcein-AM dye based confocal laser scanning microscopy; assay type: functional
SH-SY5Y [12] = assay: Effect on VGSC in human SH-SY5Y cells assessed as effect on total sodium current at 0.1 nM to 10 uM by whole cell patch clamp electrophysiology method; assay type: cell-based
[13] = Cytotoxicity against human SH-SY5Y cells assessed as reduction in cell viability at 25 uM incubated for 1 hr by MTT assay; assay type: cell-based
SH-SY5Y [14] = assay: Effect on cytosolic Ca2+ level in human SH-SY5Y cells at 10 uM by FURA-2AM dye based fluorescence assay; assay type: functional, cell-based
SH-SY5Y [15] = assay: Inhibition of SOC in human SH-SY5Y cells assessed as reduction in thapsigargin-induced Ca2+ influx incubated for 5 mins at 10 uM in presence of 10 uM FCCP by FURA-2AM dye based fluorescence assay; assay type: cell-based
SH-SY5Y [16] = assay: Inhibition of SOC in human SH-SY5Y cells assessed as reduction in thapsigargin-induced Ca2+ influx incubated for 5 mins at 10 uM in presence of 30 uM SKF96365 by FURA-2AM dye based fluorescence assay; assay type: cell-based
SH-SY5Y [17] = assay: Inhibition of SOC in human SH-SY5Y cells assessed as reduction in thapsigargin-induced Ca2+ influx incubated for 5 mins at 1 uM by FURA-2AM dye based fluorescence assay; assay type: cell-based
SH-SY5Y [18] = assay: Inhibition of SOC in human SH-SY5Y cells assessed as reduction in thapsigargin-induced Ca2+ influx incubated for 5 mins at 30 uM by FURA-2AM dye based fluorescence assay; assay type: cell-based

Sodium channel protein type 8 subunit alpha (Homo sapiens), sequence (Q9UQD0 whole entry, looked up): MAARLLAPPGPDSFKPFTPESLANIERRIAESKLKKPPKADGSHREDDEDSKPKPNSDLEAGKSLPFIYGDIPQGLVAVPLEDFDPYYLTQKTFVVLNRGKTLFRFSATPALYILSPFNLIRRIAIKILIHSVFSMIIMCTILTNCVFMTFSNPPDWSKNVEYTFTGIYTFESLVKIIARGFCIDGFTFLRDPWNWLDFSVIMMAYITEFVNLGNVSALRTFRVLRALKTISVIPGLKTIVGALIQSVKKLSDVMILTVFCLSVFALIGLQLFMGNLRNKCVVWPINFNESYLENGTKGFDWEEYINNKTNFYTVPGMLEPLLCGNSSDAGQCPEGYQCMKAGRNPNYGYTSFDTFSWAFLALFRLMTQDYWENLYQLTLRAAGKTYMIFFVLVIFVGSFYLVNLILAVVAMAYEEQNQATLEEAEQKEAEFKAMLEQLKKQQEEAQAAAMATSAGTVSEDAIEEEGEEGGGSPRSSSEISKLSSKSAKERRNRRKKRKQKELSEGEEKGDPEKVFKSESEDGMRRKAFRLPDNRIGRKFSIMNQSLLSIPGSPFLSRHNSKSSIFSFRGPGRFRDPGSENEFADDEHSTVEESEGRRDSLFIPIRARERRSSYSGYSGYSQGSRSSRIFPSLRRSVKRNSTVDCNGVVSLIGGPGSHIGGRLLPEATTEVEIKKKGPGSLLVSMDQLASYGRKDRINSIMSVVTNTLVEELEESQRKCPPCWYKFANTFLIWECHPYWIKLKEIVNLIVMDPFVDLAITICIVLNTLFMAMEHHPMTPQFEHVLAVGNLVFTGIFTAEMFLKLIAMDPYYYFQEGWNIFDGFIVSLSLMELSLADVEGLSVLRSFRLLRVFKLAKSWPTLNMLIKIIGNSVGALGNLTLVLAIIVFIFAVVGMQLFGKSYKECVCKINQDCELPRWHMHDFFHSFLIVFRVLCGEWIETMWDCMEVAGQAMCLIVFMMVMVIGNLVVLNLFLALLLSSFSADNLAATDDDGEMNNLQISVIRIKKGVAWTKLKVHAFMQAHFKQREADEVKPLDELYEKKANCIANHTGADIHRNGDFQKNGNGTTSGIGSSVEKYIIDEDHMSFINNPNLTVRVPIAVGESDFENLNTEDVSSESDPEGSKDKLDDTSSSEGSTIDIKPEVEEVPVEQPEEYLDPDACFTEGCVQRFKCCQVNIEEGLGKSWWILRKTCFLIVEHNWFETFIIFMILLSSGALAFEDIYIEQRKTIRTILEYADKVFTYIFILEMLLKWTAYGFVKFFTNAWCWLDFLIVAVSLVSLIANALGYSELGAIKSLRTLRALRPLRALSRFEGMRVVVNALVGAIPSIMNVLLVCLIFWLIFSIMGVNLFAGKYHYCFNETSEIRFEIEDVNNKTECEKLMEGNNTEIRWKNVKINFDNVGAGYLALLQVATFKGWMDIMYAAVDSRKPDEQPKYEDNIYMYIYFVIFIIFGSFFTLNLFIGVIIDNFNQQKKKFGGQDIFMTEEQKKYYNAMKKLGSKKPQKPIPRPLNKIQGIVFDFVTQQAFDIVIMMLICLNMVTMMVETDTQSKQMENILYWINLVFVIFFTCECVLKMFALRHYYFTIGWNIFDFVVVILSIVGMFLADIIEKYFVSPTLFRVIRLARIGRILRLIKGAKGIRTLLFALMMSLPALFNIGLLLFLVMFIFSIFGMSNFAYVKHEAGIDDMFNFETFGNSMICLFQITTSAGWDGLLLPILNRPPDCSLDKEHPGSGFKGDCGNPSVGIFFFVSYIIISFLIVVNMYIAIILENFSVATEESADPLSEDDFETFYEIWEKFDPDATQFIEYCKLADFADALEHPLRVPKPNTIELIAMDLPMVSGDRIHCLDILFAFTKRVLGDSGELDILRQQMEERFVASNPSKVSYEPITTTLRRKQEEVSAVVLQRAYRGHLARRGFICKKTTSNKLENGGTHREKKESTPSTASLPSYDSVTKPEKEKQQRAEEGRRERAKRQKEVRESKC

Structure (SMILES)	inhibition at 10 µM (SH-SY5Y [1])	inhibition (SH-SY5Y [2])	inhibition (SH-SY5Y [3])	Activity (SH-SY5Y [4])	inhibition (SH-SY5Y [5])	inhibition (SH-SY5Y [6])	Activity [7]	inhibition (SH-SY5Y [8])	inhibition (SH-SY5Y [9])	Activity [10]	inhibition at 10 µM (SH-SY5Y [11])	Activity (SH-SY5Y [12])	Activity [13]	Activity (SH-SY5Y [14])	inhibition (SH-SY5Y [15])	inhibition (SH-SY5Y [16])	inhibition (SH-SY5Y [17])	inhibition (SH-SY5Y [18])
CC(C)=CCNC(=N)NCCC[C@H]1NC(=O)[C@H](Cc2ccccc2)NC(=O)[C@H](CC(=O)O)NC(=O)[C@H](CC(C)C)NC(=O)CNC(=O)[C@H]2CCCN2C(=O)[C@H](Cc2ccccc2)NC1=O	36%	inactive	33%	inactive	inactive	Dose-dependent effect	inactive	inactive	Active	Non-toxic	30%	inactive	42%	inactive	72%	Active	inactive	
COc1ccc(CCCOC(Cn2ccnc2)c2ccc(OC)cc2)cc1 (centres undefined)																		Active
N#CC(C#N)=NNc1ccc(OC(F)(F)F)cc1	68%	Active			Active			inactive	51%		20%							
